Reference: article PMC12064818, “A general assay platform to study protein pharmacology using ligand-dependent structural dynamics” (Nature Communications, 2025)

Biological target: T1, FLuc-C-HiBiT (Photinus pyralis, UniProt P08659)
T1 construct: firefly luciferase with C-terminal HiBiT tag, E. coli expressed
Experiment: biochemical
Details: enzyme activity, 10 uM ATP; read-out: IC50 or SDR50 (mM) / FLuc E
Description: The enzyme activity of FLuc-N-HiBiT, FLuc-C-HiBiT, and FLuc-C-NLuc was measured similar to P. pyralis firefly luciferase (FLuc) as previously described. […] Compounds and controls were added to each plate as described in Supplementary Data 8 with a Hornet pintool system (Wako Automation). Compounds were incubated with respective enzymes for 30–60 min at room temperature protected from light and covered by solid metal lid to prevent evaporation. […] Luciferin was incubated with FLuc enzyme for 5 min before FLuc activity was then measured on a ViewLux CCD imager (PerkinElmer), with exposure times up to ten seconds with medium to high gain settings. Data were normalized to average no enzyme control as 100% enzyme inhibition and average DMSO neutral control. See Supplementary Table 4 for additional details. As a proof-of-concept target, we appended the sensor protein or corresponding α-peptide to either the N- or C-terminus of the target protein firefly luciferase (FLuc), an ATP cofactor-dependent monooxygenase (Supplementary Fig. 1a) having a broad, well-characterized and accessible ligand pharmacology. For initial characterization of the SDR concept, either NLuc or the 11 amino acid HiBiT tag (α-peptide) and complementary 18 kDa LgBiT subunit (ω-fragment), which self-assemble to reconstitute functional NLuc enzyme[24] were tested. In contrast to the ATP-dependent bioluminescent FLuc enzyme, NLuc generates a bright bioluminescence in an ATP-independent manner from the direct oxidation of furimazine (Supplementary Fig. 1b). […] Next, FLuc-C-NLuc, FLuc-N-HiBiT or FLuc-C-HiBiT were assayed with the same inhibitor in an SDR assay format by monitoring bioluminescence from NLuc or its reconstitution by α-complementation with LgBiT. Measurements of NLuc activity were made either in the absence or presence of the FLuc ATP cofactor, as NLuc bioluminescence is ATP-independent.

T1 sequence (P08659 whole entry, looked up): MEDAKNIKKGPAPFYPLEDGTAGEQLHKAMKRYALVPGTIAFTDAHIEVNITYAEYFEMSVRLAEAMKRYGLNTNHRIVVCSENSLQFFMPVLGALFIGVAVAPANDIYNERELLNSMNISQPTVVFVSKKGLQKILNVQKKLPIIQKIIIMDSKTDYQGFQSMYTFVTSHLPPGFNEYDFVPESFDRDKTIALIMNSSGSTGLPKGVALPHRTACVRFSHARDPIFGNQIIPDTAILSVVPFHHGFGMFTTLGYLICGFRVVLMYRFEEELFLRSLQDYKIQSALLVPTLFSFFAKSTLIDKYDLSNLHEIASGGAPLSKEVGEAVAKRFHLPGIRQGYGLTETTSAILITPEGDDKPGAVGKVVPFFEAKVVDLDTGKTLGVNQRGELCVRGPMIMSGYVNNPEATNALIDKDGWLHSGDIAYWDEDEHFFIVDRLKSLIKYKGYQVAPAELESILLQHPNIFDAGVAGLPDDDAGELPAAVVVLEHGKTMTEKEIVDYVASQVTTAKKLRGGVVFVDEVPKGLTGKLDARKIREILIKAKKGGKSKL

Structure (SMILES) | IC50
COc1cc(OC)cc(C(=O)Nc2ccc(-c3nc4ccccc4s3)cc2C)c1 [NCGC00103060-01] | > 30 µM
Fc1ccccc1-c1nc(-c2ccccc2)no1 [NCGC00058026-03] | 1.57 µM
Clc1ccc2c(c1)-n1cc(-c3ccccc3)nc1CO2 [NCGC00164952-01] | > 30 µM
CC(C)c1ccc(C(=O)Nc2ccc(-c3nc4ccccc4s3)c(Cl)c2)cc1 [NCGC00101984-01] | > 30 µM
Cc1ccc2nc(-c3ccc(/N=N/c4cc(S(=O)(=O)O)c5ccccc5c4O)cc3)sc2c1S(=O)(=O)O [NCGC00161973-01] | 12.4 µM
COc1cccc(F)c1-c1ccc(COc2ccc3c(cnn3CCC(=O)O)c2)cc1 [NCGC00418057-01] | 20.2 µM
Cc1ccc(-n2ncc3c(NC4CCCCC4)ncnc32)cc1Cl [NCGC00139149-01] | 2.79 µM
Cc1ccc(NC(=O)Nc2ccc(C)n(CC(=O)NCC(C)C)c2=O)cc1 [NCGC00430796-01] | 1.11 µM
Cc1nn(-c2ccc(C(C)(C)C)cc2)c(C)c1[C@@H]1C=C[C@@H](NC(=O)CCCC(=O)O)C1 [NCGC00400254-01] | 20.2 µM
O=C1c2cnc(-c3cccc(F)c3)nc2OCCN1c1ccccc1 [NCGC00413626-01] | 14.3 µM
COc1ccc(-c2cc(N3CCCC(NC(=O)c4ccc5[nH]ccc5c4)C3)[nH]n2)cc1 (stereo not shown) [NCGC00437714-01] | 4.95 µM
COc1ccc(-c2cn3nc(SCC(=O)Nc4ccccc4F)ccc3n2)cc1 [NCGC00134464-01] | 1.57 µM
O=C(COc1ccc(Cl)cc1)Nc1ccc(O)c(-c2nc3ccccc3s2)c1 [NCGC00135616-01] | > 30 µM
COc1ccc(-c2nc3ccccc3s2)cc1NC(=O)COc1ccc(C)cc1 [NCGC00103030-01] | > 30 µM
COc1ccc(OCC(=O)Nc2nc(-c3ccc(Br)cc3)ns2)cc1 [NCGC00118248-01] | > 30 µM
O=C(Nc1ccc(O)c(-c2nc3ccccc3s2)c1)c1cc2ccccc2o1 [NCGC00595541-01] | > 30 µM
CN1CCC(NC(=O)C(C)(C)Oc2nn(Cc3ncccn3)c3ccccc23)CC1 [NCGC00419638-01] | > 30 µM
Brc1ccc(-c2cn3cc(Cc4ccccc4)sc3n2)cc1 [NCGC00102136-01] | 0.881 µM
COc1cccc(-c2cn3ncsc3n2)c1 [NCGC00117781-01] | 11.1 µM
CCc1nnc(CC2CCN(C(=O)Nc3ccc4c(c3)OCCO4)CC2)[nH]1 [NCGC00458299-01] | 11.1 µM
CCC(=O)N1CCc2ccc(C(=O)NC3CCCCC3)cc21 [NCGC00430262-01] | 11.1 µM

Structure (SMILES) | IC50
Cn1cc(CN2CCc3nc(C(=O)Nc4ccccc4)oc3CC2)cn1 [NCGC00413305-01] | 18 µM
Cc1ccc(-n2ncc3c(N4CCCCC4)ncnc32)cc1 [NCGC00139024-01] | 0.197 µM
CC(C)c1ccc(C2=CC(c3ccc(C(C)C)cc3)n3nnnc3N2)cc1 (stereo not shown) [NCGC00140789-01] | > 30 µM
Nc1ccc2nc(-c3ccc(O)cc3)sc2c1 [NCGC00098122-01] | 0.624 µM
CN(C)c1ccc(-c2nc3ccccn3c2Nc2ccc3c(c2)OCCO3)cc1 [NCGC00106568-01] | 11.1 µM
O=C(Nc1ccc2c(c1)OCCO2)c1cccn(Cc2ccccc2)c1=O [NCGC00137349-01] | 11.1 µM
Nc1nccc(-c2c(-c3ccc(F)cc3)ncn2C2CCNCC2)n1 [NCGC00165900-01] | > 30 µM
C=CCN(C)C(=O)[C@@H](C)C1CC[C@@]2(C)Cc3sc(NC(=O)CN(C)C)nc3[C@@H](C)[C@@H]2[C@H]1O (stereo partly shown) [NCGC00421253-01] | > 30 µM
CCOCC(=O)N1c2ccccc2CC1c1noc(C(C)C)n1 (stereo not shown) [NCGC00471496-01] | 12.4 µM
Cn1cc(-c2cccc(COc3ccc4c(cnn4CC[S+](C)(=O)[O-])c3)c2)cn1 [NCGC00418049-01] | 18 µM
Cc1ccc(C)c(N2CCN(C(=O)C3CCN(c4nc(-c5ccc(C(C)C)cc5)no4)CC3)CC2)c1 [NCGC00134060-01] | 11.1 µM
CSCC(=O)N[C@H]1CCN2C(=O)c3cc(-c4ccc(SC)cc4)ccc3NC(=O)[C@H]12 [NCGC00391740-01] | 11.1 µM
COc1cccc(-c2nc(-c3cccc(C(=O)O)c3)no2)c1 [NCGC00168766-01] | 0.00394 µM
CN(C)c1cccc(C(=O)NC2CCN(c3cc(-c4ccc(Cl)cc4)n[nH]3)C2)c1 (stereo not shown) [NCGC00437918-01] | 11.1 µM
Cc1ccc(C(=O)Nc2ccc(-c3nc4ccccc4s3)c(O)c2)c(C)c1 [NCGC00134691-01] | > 30 µM
CN(c1ccccc1)c1ccc2ncn(C3CC3)c(=O)c2n1 [NCGC00414800-01] | 5.68 µM
C[C@H](C(=O)NCCN1CCOCC1)C1CC[C@@]2(C)Cc3sc(CSc4ccccc4)nc3[C@@H](C)[C@@H]2[C@H]1O (stereo partly shown) [NCGC00398276-01] | 12.4 µM
Cc1ccc(C(=O)Nc2ccc(-c3nc4ccccc4s3)cc2C)cc1C [NCGC00103062-01] | > 30 µM
Cc1cccc(CNC(=O)Cc2csc3ccccc23)c1 [NCGC00113581-01] | > 30 µM
CC1=C[C@@H](CNC(=O)c2ccncc2)[C@H](C(C)C)C[C@H]1CC(=O)N1CCOCC1 [NCGC00394503-01] | > 30 µM
Cc1cccc(OCC(=O)Nc2cccc(-c3nc4ccccc4s3)c2)c1 [NCGC00099366-01] | 6.24 µM

Structure (SMILES) | IC50
O=C(Nc1ccccc1)c1nc2c(o1)CCN(CC1CC1)CC2 [NCGC00413351-01] | 16.1 µM
CCOC(=O)c1ccc(NC(=O)CSc2nnc(CNC(=O)c3ccc(OC)cc3)n2CC)cc1 [NCGC00110413-01] | 12.4 µM
COc1ccc(-c2cc3c(cn2)CN(C)CCN3)cn1 [NCGC00411253-01] | 22.6 µM
Cc1ccc(-c2cc3c(=O)n(CCNC(=O)Cc4ccsc4)ccn3n2)c(C)c1 [NCGC00456972-01] | 6.24 µM
CC(=O)NC1(C)CCN(Cc2ccc(-c3ccc4c(ccn4C)c3)cc2)C1 (stereo not shown) [NCGC00410408-01] | 7.18 µM
Cc1ccc2sc(-c3ccc(N)cc3)nc2c1 [NCGC00117377-01] | 0.279 µM
O=C(Nc1cccnc1)c1nc2c(o1)CCN(Cc1cccc(O)c1)CC2 [NCGC00413425-01] | 20.2 µM
OCCN1CCN(c2nc(N3CCCCC3)c3cnn(-c4ccc(Cl)cc4)c3n2)CC1 [NCGC00652352-01] | > 30 µM
OC1CCN(c2ncnc3c2cnn3-c2ccccc2)CC1 [NCGC00626234-01] | 15.7 µM
COc1ccc(-c2cnc(Nc3ccccc3)c3c2CCO3)cn1 [NCGC00412779-01] | 18 µM
COc1ccc(OCC(=O)Nc2cccc(-c3nc4ccccc4s3)c2C)cc1 [NCGC00118972-01] | 7.85 µM
N#Cc1ccc(C(=O)Nc2ccccc2-c2nc3ccccc3s2)c(F)c1 [NCGC00103058-01] | > 30 µM
COc1cccc(Nc2ccc(CN3CCC(C)(NC(C)=O)C3)cc2)c1 (stereo not shown) [NCGC00410471-01] | 20.2 µM
Cc1c(C(=O)Nc2ccc(C(=O)O)cc2)nnn1-c1ccccc1 [NCGC00141304-01] | 0.0785 µM
O=C(O)C1(CCc2ccccc2)CCCN(c2ncnc3[nH]cnc23)C1 (stereo not shown) [NCGC00432626-01] | > 30 µM
C[C@@H]1CN(c2cnc3ccccc3n2)CC[C@@]1(O)C1CCC1 [NCGC00441645-01] | 11.1 µM
Cc1ccc2nc(-c3ccc(NC(=O)COc4ccc(Cl)c(C)c4)cc3)sc2c1 [NCGC00098204-01] | > 30 µM
O=[S+]([O-])(c1cccc(C(F)(F)F)c1)n1c(/C=C/c2ccccc2)nc2ccccc21 [NCGC00139418-01] | 0.556 µM
C[S+](=O)([O-])CCn1ncc2cc(OCc3cccc(-c4ccccc4O)c3)ccc21 [NCGC00418051-01] | 14.3 µM
